Data on 21 molecules can be found in ChEMBL document CHEMBL3758149, “3-(Piperidin-4-ylmethoxy)pyridine Containing Compounds Are Potent Inhibitors of Lysine Specific Demethylase 1” (J Med Chem, 2016).

SMILES strings stand for the structures.

A word on the Ki: it is a dissociation constant, usually derived from enzyme kinetics or from competition with a known ligand. A high value points to weaker binding. In general, IC50 refers to the concentration that gives 50% inhibition. Lower therefore signals higher potency.

The first test concerns the target T1, Lysine-specific histone demethylase 1A (Homo sapiens, UniProt O60341).
For `Cc1ccc(-c2ncc(OCC3CCNCC3)cc2-c2ccc(C(=O)NC3CC3)cc2)cc1`, the inhibition constant (Ki) is above 50 µM.

For `Cc1ccc(-c2ncc(OCC3CCNCC3)cc2-c2ccc(C(=O)O)cc2)cc1`, the Ki was above 50 µM.

With `Cc1ccc(-c2ncc(OCC3CCNCC3)cc2-c2ccc(C(=O)N3CCNCC3)cc2)cc1`, the inhibition constant Ki was above 50 µM.

In turn, `Brc1ccc(-c2ncc(OCC3CCNCC3)nc2-c2ccc(Br)cc2)cc1` displayed an inhibitory constant (Ki) of 26.2 µM.

In the case of `c1ccc(-c2cc(OCC3CCNCC3)cnc2-c2ccccc2)cc1`, the Ki was above 50 µM.

Turning to `N#Cc1ccc(-c2nc(OCC3CCNCC3)cnc2-c2ccc(Br)cc2)cc1`, affinity was put at a Ki of 0.54 µM.

`N#Cc1ccc(-c2ncc(OCC3CCNCC3)nc2-c2ccc(Br)cc2)cc1` registered a Ki of 16.5 µM.

The molecule `Cc1ccc(-c2ncc(OCC3CCNCC3)cc2-c2ccc(CO)cc2)cc1` had a Ki above 50 µM.

The molecule `Cc1ccc(-c2ncc(OCC3CCNCC3)cc2-c2ccc(CN3CCCCC3)cc2)cc1` registered an inhibition constant Ki above 50 µM.

On to `Cc1ccc(-c2ncc(O)cc2-c2ccc(C#N)cc2)cc1`, for which the Ki is above 50 µM.

As to `Cc1ccc(-c2ncc(OCc3ccccc3)cc2-c2ccc(C#N)cc2)cc1`, the inhibitory constant (Ki) was above 50 µM.

`Cc1ccc(-c2ncc(OCC3CCNCC3)cc2-c2ccc(C(=O)N3CCCCC3)cc2)cc1` had an inhibition constant Ki above 50 µM.

Molecule `c1ccc(-c2ccc(OCC3CCNCC3)cn2)cc1` displayed an inhibition constant Ki above 50 µM.

Consider `C#Cc1ccc(-c2cc(OCC3CCNCC3)cnc2-c2ccc(C)cc2)cc1`, for which the Ki was above 50 µM.

Turning to `N#Cc1ccc(-c2ncc(OCC3CCNCC3)nc2-c2ccc(C#N)cc2)cc1`, the inhibitory constant (Ki) was found to be 9.1 µM.

For `Cc1ccc(-c2ncc(OCC3CCNCC3)cc2-c2ccc(C(=O)N3CCOCC3)cc2)cc1`, the Ki was above 50 µM.

Another test deals with T2, Amine oxidase [flavin-containing] A (Homo sapiens, UniProt P21397).
T2 sequence (P21397 whole entry): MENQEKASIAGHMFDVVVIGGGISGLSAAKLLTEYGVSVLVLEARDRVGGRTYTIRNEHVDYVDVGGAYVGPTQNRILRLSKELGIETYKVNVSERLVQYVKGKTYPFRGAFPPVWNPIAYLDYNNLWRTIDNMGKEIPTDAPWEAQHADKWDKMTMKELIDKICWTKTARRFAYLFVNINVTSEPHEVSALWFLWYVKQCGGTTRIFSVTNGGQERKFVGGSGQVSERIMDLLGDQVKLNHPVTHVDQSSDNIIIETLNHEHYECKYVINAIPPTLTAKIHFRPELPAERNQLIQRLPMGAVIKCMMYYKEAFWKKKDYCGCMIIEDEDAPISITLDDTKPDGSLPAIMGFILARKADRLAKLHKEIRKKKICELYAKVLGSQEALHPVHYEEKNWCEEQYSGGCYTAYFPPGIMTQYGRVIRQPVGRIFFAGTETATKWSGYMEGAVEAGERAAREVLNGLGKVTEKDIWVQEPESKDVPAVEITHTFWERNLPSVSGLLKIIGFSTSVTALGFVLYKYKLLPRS
Description: Inhibition of recombinant human MAO-A after 60 mins MAO-glo assay
`N#Cc1ccc(-c2cc(OCC3CCNCC3)cnc2-c2ccc(C(F)(F)F)cc2)cc1` had a Ki above 50 µM.

`Cc1ccc(-c2ncc(OCC3CCNCC3)cc2-c2ccc(C#N)cc2)cc1`: the Ki was above 50 µM.

Consider `N#Cc1ccc(-c2cc(OCC3CCNCC3)cnc2-c2ccccc2)cc1`, for which the Ki was above 50 µM.

The molecule `N#Cc1ccc(-c2cc(OCC3CCNCC3)cnc2-c2ccc(OC(F)(F)F)cc2)cc1` registered an inhibitory constant (Ki) above 50 µM.

A further test addresses T1, Lysine-specific histone demethylase 1A. This is another data set of the same source.
`CN1CCN(C(=O)CN[C@H]2C[C@@H]2c2ccc(-c3ccc(F)nc3)cc2)CC1` (relative stereo) yielded a 50% inhibitory concentration (IC50) of 0.077 µM.
